Read-outs that look alike come from different tables or passages of the source.
How the values were obtained:
[1] = amine drug, cited from earlier work
[2] = Solubility test of paliperidone with ionizable compound (citric acid) and amphiphilic compound (SoluPlus); type: physicochemical; conditions: for solubility: room temperature
Description: A solubility test was performed to quantify the synergistic effects provided by the combination of an ionizable polymer and an amphiphilic compound. In this Example the ionizable compound was citric acid and the amphiphilic compound was SoluPlus®.

Cc1cc2c(s1)Nc1ccccc1N=C2N1CCN(C)CC1 [Olanzapine]
pKa ([1]; first pKa value): 5 | pKa ([1]; second pKa value): 7.4

Cc1nc2n(c(=O)c1CCN1CCC(c3noc4cc(F)ccc34)CC1)CCCC2O (stereo not drawn) [Paliperidone]
solubility higher in solution containing ionizable compound and amphiphilic polymer compared to ionizable compound without amphiphilic polymer ([2]; 10% Soluplus + 10% citric acid vs 10% citric acid alone): 34.3% | solubility ([2]; aqueous buffer, in 10% Citric Acid Aqueous Solution): 241 mg/mL | solubility ([2]; aqueous with cosolvent or surfactant or cyclodextrin, in 10% Soluplus Aqueous Solution): 0.6 mg/mL | solubility ([2]; aqueous with cosolvent or surfactant or cyclodextrin, in 10% Soluplus and 10% Citric Acid Aqueous Solution): 324 mg/mL | pKa ([1]; first pKa value): 8.2 | pKa ([1]; second pKa value): 8.6

CCOc1ccccc1OCCN[C@H](C)Cc1ccc(OC)c(S(N)(=O)=O)c1 [Tamsulosin]
pKa ([1]; second pKa value): 10.23
